In patent US20190127692A1, “Production Method For Hepatocyte Lineage Cells, Hepatocyte Lineage Cell Or Culture Product Obtained By The Production Method, And Hepatocyte Differentiation-Inducing Medium” (National University Corporation Chiba University, priority 2017, published 2019):

Experiments:
Assay type in all cases: cell-based, human
albumin = experiment: Albumin expression by real-time quantitative PCR (Example 4); conditions: 1 mM in HSM, 7 days culture, control ReproFF
Protocol: (§1) 201B7 cells, ReproFF, HSM, calcium lactate, and sodium lactate were prepared in the same manner as in Example 2.
(§2) The 201B7 cells were seeded to a 6-well plate coated with Matrigel, and when 100% confluence had been reached, the medium was exchanged with 1 mM calcium lactate (Ca-lactate), 1 mM sodium lactate (Na-lactate), or 1 mM lactic acid (Lactate), followed by culture for 7 days. Control cells were cultured in ReproFF.
(§3) RNA was extracted and analyzed for the expression levels of AFP and albumin by real-time quantitative PCR.

AFP [1] = experiment: AFP expression by real-time quantitative PCR (Example 4); conditions: 1 mM in HSM, 7 days culture, control ReproFF
Protocol: as §1, §2, §3

201B7 cells [2] = experiment: Optical microscope observation 1: precipitates and cell survival after 7-day culture (Example 3)
Protocol: In the above-mentioned Examples, precipitates were formed in culture dishes in some cases. The formation of the precipitates inhibits contact between cells and medium to adversely affect long-term survival. Therefore, conditions under which the precipitates were not formed were investigated.
201B7 cells, ReproFF, HSM, and calcium lactate were prepared in the same manner as in Example 2.
5×10^4 201B7 cells were seeded to a 96-well plate coated with Matrigel. The next day, to HSM, calcium lactate was added at 3 μM, 10 μM, 30 μM, 100 μM, 300 μM, 1 mM, 3 mM, 10 mM, 30 mM, or 100 mM, followed by culture for 7 days.

AFP [3] = experiment: Immunostaining with anti-AFP antibody (Example 6); conditions: HSM supplemented, 7 days culture
Protocol: 201B7 cells, HSM, ReproFF, and calcium lactate were prepared in the same manner as in Example 2.
The 201B7 cells were seeded to an 8-well chamber slide and cultured. After 100% confluence had been reached, 1 mM calcium lactate was added to HSM, followed by culture for 7 days. As a control, the cells were cultured in ReproFF for 7 days.
The cells were fixed with 4% paraformaldehyde, and washed with phosphate buffered saline (PBS). The cells were incubated at 4° C. for 30 minutes in 100% methanol having added thereto 0.3% hydrogen peroxide solution to inactivate intrinsic peroxidase. The cells were washed three times with PBS. The cells were incubated at 4° C. for 30 minutes in PBS supplemented with 2% fetal bovine serum (wash buffer).
A mouse anti-human alpha-fetoprotein (AFP) antibody (manufactured by Takara Bio Inc., product code: M225) was diluted 1,000-fold with the wash buffer and added, followed by incubation at 4° C. overnight. The resultant was washed three times with PBS. An anti-mouse IgG antibody (manufactured by GE Healthcare) labeled with Horse-radish peroxidase was diluted 1,000-fold with the wash buffer, followed by incubation at 4° C. for 3 hours. The resultant was washed three times with PBS. Color development was performed with 3,3-diaminobenzidine (DAKO, K3467), and nuclei were stained with hematoxylin, followed by mounting.

201B7 cells [4] = experiment: Optical microscope observation 2: state of culture cells (Example 5); conditions: 1 mM, 7 days culture
Protocol: 201B7 cells, HSM, calcium lactate, sodium lactate, and lactic acid were prepared in the same manner as in Example 2.
The 201B7 cells were seeded to a 6-well plate coated with Matrigel, and when 100% confluence had been reached, the medium was exchanged with 1 mM calcium lactate, 1 mM sodium lactate, or 1 mM lactic acid, followed by culture for 7 days.

[5] = in HSM, 7 days culture, optical microscope

## CC(O)C(=O)[O-].CC(O)C(=O)[O-].[Ca+2] (stereo not drawn) [calcium lactate]
albumin
  expression of albumin as compared to the undifferentiated state: upregulated
AFP [1]
  expression of AFP as compared to the undifferentiated state: upregulated
201B7 cells [2]; 1 mM in HSM, 7 days culture
  cell survival: survived
201B7 cells [2]; [5]
  concentration at which precipitates were found: ≥ 3000 µM
  concentration at which precipitates were not found: ≤ 1000 µM

## CC(O)C(=O)O (stereo not drawn) [lactic acid]
201B7 cells [2]; iPS cells, 7 days
  cell survival in HSM supplemented with lactic acid (general remark): survived even after 7 days
AFP [3]
  AFP expression (immunostaining) as compared to cells cultured in ReproFF: upregulated
201B7 cells [4]
  state of cells as compared to cells cultured with calcium lactate: collapsing tendency

## CC(O)C(=O)[O-].[Na+] (stereo not drawn) [sodium lactate]
albumin
  expression of albumin as compared to the undifferentiated state: upregulated
AFP [1]
  expression of AFP as compared to the undifferentiated state: upregulated
201B7 cells [2]; 3 mM, 7 days culture
  optical microscope observation, FIG. 3A: precipitates
201B7 cells [4]
  state of cells as compared to cells cultured with calcium lactate: collapsing tendency
